Results published in patent US9474744B2, “Beta-lactam compounds for treating diabetes” (STEM CELL MEDICINE LTD., priority 2011, dated 2016).

Key:
NOD mice = experiment: Development of autoimmune diabetes in NOD mice; format: in vivo, mouse; settings: at 5.7 months; s.c. at weekly intervals, ampicillin 1300 μg or ceftriaxone 675 μg per mouse; blood sugar above 300 mg/dl on 2 measurements; control 60%
Source text: Inbred female Lewis rats and NOD (non-obese diabetic) mice were supplied by the animal breeding center of the Weizmann Institute of Science, Israel, under the supervision of Harlan Laboratories and were used at 2-3 months of age. Experiments were approved by the Institutional Animal Care and Use Committee. Human peripheral blood lymphocytes from healthy donors were obtained from the blood bank of Sheba Medical Center, Tel Hashomer, Israel.
NOD mice spontaneously develop diabetes mellitus similar to type I diabetes in humans. […] The mice were followed for the development of diabetes, marked by blood sugar above 300 mg/dl on 2 measurements.

[1] = tested on: encephalitogenic BP10 line; experiment: Adoptive EAE: BP10 T-cell line stimulated in vitro with test substance, then injected into naive rats; format: in vivo, rat
Protocol: Antigen-specific T-cell lines were established from lymph node cells that had been stimulated with myelin basic protein (MBP; 10 μg/ml) for 3 days in stimulation medium as described below. Following stimulation, the T-cell blasts were isolated on LYMPHOPREP™ (Nycomed Pharma, Oslo, Norway) and seeded in propagation medium. Propagation medium was identical to stimulation medium without autologous serum, but supplemented with fetal calf serum 10% and T-cell growth factors from the supernatant of Con A stimulated spleen cells 10% (Mor et al. (1990) J Clin Invest, 85, 1594-1598). Animals were injected intra-peritoneally with 107 MBP-stimulated T cells, following 6-8 cycles of in vitro stimulations. It is known that MBP-reactive lines undergo a reduction in pathogenicity after 6 or more in vitro stimulations. In some experiments the BP10 line was stimulated with phorbol myristate acetate (PMA; 50 ng/ml) and ionomycin (500 ng/ml) for 3 days in stimulation medium, without antigen-presenting cells.
Active EAE was induced by subcutaneous injection of 25 μg guinea-pig MBP (GpMBP) in complete Freund's adjuvant (CFA). […] Adoptive EAE was transferred by intra-peritoneal injection of guinea-pig MBP-activated cells of the BP10 line as described in Mor et al. (1993) J Clin Invest, 92, 2199-2206. […] Clinical scoring was: +1, paralysis of tail; +1.5, paresis of posterior paws and ataxia; +2, paraplegia; +3, paralysis extending to thoracic spine; +4, a moribund state.
Treatment with cefuroxime in vivo could affect many different host agents involved in EAE or AA as well as influencing the rats' bacterial flora. To test whether the antibiotic might directly modify the behavior of effector T cells, an encephalitogenic T-cell line was stimulated in the presence or absence of cefuroxime in vitro. The weakly encephalitogenic BP10 line was used, and was stimulated for 3 days with MBP in the presence or absence of cefuroxime (50 μg/ml). The activated T cells were then washed to remove the antibiotic, the T cells were injected intra-peritoneally into naïve recipient rats (10^7 per rat), and EAE was scored. The BP10 line at later stimulations was used, when its pathogenic potential is reduced, allowing to detect both suppression and enhancement of disease. […] To rule out antigen presenting cells (APC) as the target of the beta-lactam antibiotic, the encephalitogenic BP10 line was stimulated without APC using PMA (50 ng/ml) and Ionomycin (500 ng/ml) in the presence or absence of cefuroxime.
Additional beta-lactam antibiotics were tested for their effect on the adoptive transfer of EAE.
A control group was injected with the untreated line.

albumin = target: T1, albumin (Rattus norvegicus, UniProt P02770); experiment: Pen 9 western blot of rat tissue lysates after intraperitoneal penicillin G; format: in vivo; settings: Lewis rats, 50 mg/rat intraperitoneally, 2 hours later
T1 construct: Rat tissues were ground with a tissue grinder in lysis buffer; from tissue; host or cells: various tissue lysates and serum of Lewis rats, 2 hours after i.p. penicillin G
Protocol: Rat tissues were ground with a tissue grinder in lysis buffer. The homogenate was centrifuged 14000 g for 15 min in 4° C. and the supernatant was used for western blotting. The protein concentration was determined using the BIO-RAD DC™ protein assay (Bio-Rad laboratories, Hercules, Calif.). Following electrophoresis in SDS gel in a mini-gel apparatus (Bio-Rad), the gels were electro-transferred to nitrocellulose membranes (Schleicher and schuell, Dassel, Germany). The nitrocellulose membranes were washed with distilled water for 5 min, and then blocked for 60 min. using a blocking solution composed of 2% bovine serum albumin (Fraction V, Sigma, St. Louis Mo.), 2.5% milk powder (Bio-Rad), Tris (Sigma) pH 7.5 10 mM, NaCl 150 mM and 0.02% thimerosal (Sigma). After 3×10 min. washes in PBS/TWEEN® 20 (PBS/T; 0.02%, Sigma), primary antibodies (1/1000) were incubated with the membranes in PBS/TWEEN® for 60 min. Following another series of washes in PBS/T (3×10 min), the membranes were incubated with a secondary antibody (Peroxidase conjugated anti rabbit or anti mouse, IgG Jackson ImmunoResearch, West Grove, Calif.) at a 1/2500 dilution in 2% milk in PBS solution for 60 min. After another 3×10 min washes, the membranes were incubated with the ECL reagent (for 60 seconds) and exposed to X-ray film. […]

[2] = target: T2, albumin of human CD3 T cells (Homo sapiens, UniProt P02768); experiment: Western blot with Pen 9 antibody of antibiotic-treated human T cells; format: cell-based; settings: T cells activated by mitogen in presence of antibiotic
T2 construct: endogenous in cells; host or cells: primary human peripheral-blood T cells (CD3+, CD4+ or CD8+) from healthy donors
T2 sequence (P02768 25-609): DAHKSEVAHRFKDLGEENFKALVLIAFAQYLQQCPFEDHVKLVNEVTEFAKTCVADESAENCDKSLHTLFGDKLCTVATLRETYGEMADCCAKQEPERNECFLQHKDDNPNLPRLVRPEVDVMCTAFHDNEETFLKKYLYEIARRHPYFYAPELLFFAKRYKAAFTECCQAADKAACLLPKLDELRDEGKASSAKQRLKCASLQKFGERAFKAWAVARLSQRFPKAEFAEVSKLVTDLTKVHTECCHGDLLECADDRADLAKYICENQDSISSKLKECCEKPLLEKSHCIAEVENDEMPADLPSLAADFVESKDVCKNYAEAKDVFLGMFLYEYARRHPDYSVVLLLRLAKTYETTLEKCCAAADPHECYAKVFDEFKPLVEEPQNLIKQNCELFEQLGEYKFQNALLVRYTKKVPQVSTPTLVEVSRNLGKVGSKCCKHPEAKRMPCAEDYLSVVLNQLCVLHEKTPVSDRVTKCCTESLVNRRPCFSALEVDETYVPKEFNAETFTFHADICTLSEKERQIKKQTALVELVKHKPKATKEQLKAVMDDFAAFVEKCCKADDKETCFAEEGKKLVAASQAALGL
Protocol: Rat tissues were ground with a tissue grinder in lysis buffer. The homogenate was centrifuged 14000 g for 15 min in 4° C. and the supernatant was used for western blotting. The protein concentration was determined using the BIO-RAD DC™ protein assay (Bio-Rad laboratories, Hercules, Calif.). Following electrophoresis in SDS gel in a mini-gel apparatus (Bio-Rad), the gels were electro-transferred to nitrocellulose membranes (Schleicher and schuell, Dassel, Germany). The nitrocellulose membranes were washed with distilled water for 5 min, and then blocked for 60 min. using a blocking solution composed of 2% bovine serum albumin (Fraction V, Sigma, St. Louis Mo.), 2.5% milk powder (Bio-Rad), Tris (Sigma) pH 7.5 10 mM, NaCl 150 mM and 0.02% thimerosal (Sigma). After 3×10 min. washes in PBS/TWEEN® 20 (PBS/T; 0.02%, Sigma), primary antibodies (1/1000) were incubated with the membranes in PBS/TWEEN® for 60 min. Following another series of washes in PBS/T (3×10 min), the membranes were incubated with a secondary antibody (Peroxidase conjugated anti rabbit or anti mouse, IgG Jackson ImmunoResearch, West Grove, Calif.) at a 1/2500 dilution in 2% milk in PBS solution for 60 min. After another 3×10 min washes, the membranes were incubated with the ECL reagent (for 60 seconds) and exposed to X-ray film.

[3] = free penicillin; cited from earlier work
[4] = target: T3, 67 kDa protein of human CD4 and CD8 T cells (identified as albumin) (Homo sapiens, UniProt P02768); experiment: Radioactive penicillin binding assay; settings: 10 and 20 μCi tritium-labeled, 3 days with PMA and Ionomycin; SDS-PAGE autoradiography
T3 construct: endogenous in cells; host or cells: primary human peripheral-blood T cells (CD3+, CD4+ or CD8+) from healthy donors
T3 sequence (P02768 25-609): as above
Source text: Tritium labeled benzylpenicillin was obtained from Amersham (Buckinghamshire, UK; 250 μCi, 1 mCi/ml). Human CD4 or CD8 T cells were stimulated in 24 well plates, 5×10^6 cells per ml, with PMA and Ionomycin for 72 hr in the presence of 10 or 20 μCi of labeled penicillin. Following stimulation, the cells were collected, lysed and separated by SDS PAGE. The gels were fixed, treated with 1M sodium salicylate, and dried. The dried gels were exposed to x-ray film (BioMax MS film) for 14 days, with intensifying screen (BioMax TranScreen, Eastman Kodak Co., New Haven Conn., USA), and were developed.
To test whether beta-lactam antibiotics might affect T-cell behavior likewise by covalently binding a key T-cell protein, purified CD4 or CD8 human T cells were incubated with 10 and 20 μCi of tritium-labeled lactam benzylpenicillin (Amersham, Buckinghamshire, UK) for 3 days during stimulation with PMA and Ionomycin. The stimulated T cells were collected, washed, lysed and their proteins were subjected to SDS-PAGE separation. Dried gels were exposed in intensifying screens to Xray film for 2 weeks at −80° C. […] The intensity of the band was stronger at the 20 μCi concentration of penicillin.

## CO/N=C(\C(=O)N[C@@H]1C(=O)N2C(C(=O)O)=C(CSc3nc(=O)c(=O)[nH]n3C)CS[C@H]12)c1csc(N)n1 [ceftriaxone]
NOD mice
  incidence of diabetes: 60%
[1]; BP10 line stimulated 3 days with MBP in presence of 50 μg/ml antibiotic, 10^7 cells per rat
  severity of adoptive EAE in recipient rats: enhanced EAE severity

## CC1(C)S[C@@H]2[C@H](NC(=O)Cc3ccccc3)C(=O)N2[C@H]1C(=O)O [penicillin, benzylpenicillin]
albumin
  67 kD band representing penicilloylated albumin in tissue lysates: appears in all tissues examined and is most abundant in serum
[2]
  Pen 9 reactivity with lysates of antibiotic-treated T cells: reacted specifically to a major protein of the penicillin-treated T cells
[3]
  half-life: 42 min
[4]
  radioactive penicillin-protein band in T-cell lysates: single major penicillin-protein radioactive band was detected at 67 kD

B1: Penicillin-modified rat albumin: rat albumin modified with penicillin (conjugate, UniProt P02770 25-608, looked up)
Albumin: EAHKSEIAHRFKDLGEQHFKGLVLIAFSQYLQKCPYEEHIKLVQEVTDFAKTCVADENAENCDKSIHTLFGDKLCAIPKLRDNYGELADCCAKQEPERNECFLQHKDDNPNLPPFQRPEAEAMCTSFQENPTSFLGHYLHEVARRHPYFYAPELLYYAEKYNEVLTQCCTESDKAACLTPKLDAVKEKALVAAVRQRMKCSSMQRFGERAFKAWAVARMSQRFPNAEFAEITKLATDVTKINKECCHGDLLECADDRAELAKYMCENQATISSKLQACCDKPVLQKSQCLAEIEHDNIPADLPSIAADFVEDKEVCKNYAEAKDVFLGTFLYEYSRRHPDYSVSLLLRLAKKYEATLEKCCAEGDPPACYGTVLAEFQPLVEEPKNLVKTNCELYEKLGEYGFQNAVLVRYTQKAPQVSTPTLVEAARNLGRVGTKCCTLPEAQRLPCVEDYLSAILNRLCVLHEKTPVSEKVTKCCSGSLVERRPCFSALTVDETYVPKEFKAETFTFHSDICTLPDKEKQIKKQTALAELVKHKPKATEDQLKTVMGDFAQFVDKCCKAADKDNCFATEGPNLVARSKEALA
modifications: penicillin-modified
[1]; BP10 line stimulated 3 days with 5 mg/ml in stimulation medium, control untreated line
  severity of adoptive EAE mediated by the BP10 line: could also enhance the encephalogenicity of the BP10 line
